Data: patent US12590063B2, “Phenol derivative” (Sumitomo Pharma Co., Ltd., priority 2020, dated 2026)
Where a name gives a salt, the structure may show the parent alone.

What was measured:
[1] = Evaluation test for metabolic stability to S9; format: in vitro ADME; conditions: liver S9 fraction, 37° C., 15 minutes, final compound concentration 10 nM
Method: Test Example 4: Evaluation Test for Metabolic Stability to S9
The compounds were added to a reaction solution in which the liver S9 fraction was diluted with phosphate buffer, and incubation was initiated at 37° C. (final compound concentration 10 nM, final volume 300 μL). After incubation for 15 minutes, the reaction was stopped by adding the reaction solution to acetonitrile, and centrifugation was carried out. After filtering the supernatant through a filter, the amount of compounds was determined using LC/MS/MS. From the amount of compounds obtained, the residual rate 15 minutes after the initiation of the reaction was calculated relative to the amount of compounds before the initiation of the reaction (0 minutes).

Human TRPV1 = target: T1, Human TRPV1 (Homo sapiens, UniProt Q8NER1); assay: Evaluation of agonistic properties using human TRPV1 transiently expressing cells; format: cell-based; conditions: for EC50: HEK293 cells transiently expressing human TRPV1 and apoaequorin, luminescence signal Rlu (Max-Min), read-out: TRPV1 EC50; for TRPV-1-agonistic activity (in words): evaluation test for TRPV-1-agonistic properties, summary of Tables 3 and 4
T1 construct: the TRPV1 gene (GenBank NP_542435.2) had been inserted; expressed in transfected cells; host or cells: HEK293 cells (cat #CCL-82.2, ATCC), transient transfection with pcDNA3.1
Source text: Test Example 1: Evaluation of Agonistic Properties Using Human TRPV1 Transiently Expressing Cells
(1) Generation of Human TRPV1 Transiently Expressing Cells
Human TRPV1 transiently expressing cells were generated and subjected to culture. Specifically, HEK293 cells (cat #CCL-82.2, ATCC) were used as host cells. Human TRPV1 and apoaequorin were transiently expressed by introducing the mammalian cell expression pcDNA3.1 vector (cat #v790-20, Invitrogen) into which the TRPV1 gene (GenBank NP_542435.2) had been inserted.
The Dulbecco's Modified Eagle's Medium (DMEM) medium (cat #11550-043, Thermo Fisher Scientific) containing 10% inactivated fetal bovine serum (cat #10270-106, Thermo Fisher Scientific) was used as the medium, and the culture was carried out in tissue culture dishes (cat #3020-100, Iwaki). During the culture, cells were collected every 2 to 3 days by treating with PBS containing 10% 2.5 g/1-trypsin/[…] solution, phenol red (cat #32777-44, Nacalai Tesque), and passage culture was carried out.
Three days after the passage, cells were collected with 10% trypsin-PBS treatment at a state of about 80% confluency, suspended in a DMEM medium containing 10% fetal bovine serum to 4000 cells/35 μl/well, and seeded into 384-well plates (cat #353962, FALCON).
The day after seeding, Viviren (cat #E6492, Promega) was added (15 μl/well) to a final concentration of 4.5 μM/HBSS (cat #14065-056, Thermo Fisher Scientific)/90 mM HEPES (cat #17514-15, Nacalai Tesque)/0.1% BSA (cat #01281-84, Nacalai Tesque), and after centrifugation, the samples were allowed to stand at room temperature for 2 hours under light-shielded conditions.
(2) Preparation of Test Compounds
For the test compounds, dimethyl sulfoxide solutions were produced at a concentration 1000 times the final concentration, and from these solutions, solutions at concentration 10 times the final concentration were prepared with Hanks/20 mmol/L HEPES/0.10% BSA (cat #01281-84, Nacalai Tesque).
(3) Evaluation of TRPV1-Agonistic Properties
FDSS7000 (Hamamatsu Photonics K.K.) was used for detection of TRPV1 agonist-stimulated luminescence signals. The test compounds were added to plates to which the cells and luminescent substrates had been added. The luminescence signals (center wavelength: 465 nm) after addition of the test compounds were measured, and the Rlu (Max−Min) was calculated.

T1 sequence (Q8NER1 whole entry): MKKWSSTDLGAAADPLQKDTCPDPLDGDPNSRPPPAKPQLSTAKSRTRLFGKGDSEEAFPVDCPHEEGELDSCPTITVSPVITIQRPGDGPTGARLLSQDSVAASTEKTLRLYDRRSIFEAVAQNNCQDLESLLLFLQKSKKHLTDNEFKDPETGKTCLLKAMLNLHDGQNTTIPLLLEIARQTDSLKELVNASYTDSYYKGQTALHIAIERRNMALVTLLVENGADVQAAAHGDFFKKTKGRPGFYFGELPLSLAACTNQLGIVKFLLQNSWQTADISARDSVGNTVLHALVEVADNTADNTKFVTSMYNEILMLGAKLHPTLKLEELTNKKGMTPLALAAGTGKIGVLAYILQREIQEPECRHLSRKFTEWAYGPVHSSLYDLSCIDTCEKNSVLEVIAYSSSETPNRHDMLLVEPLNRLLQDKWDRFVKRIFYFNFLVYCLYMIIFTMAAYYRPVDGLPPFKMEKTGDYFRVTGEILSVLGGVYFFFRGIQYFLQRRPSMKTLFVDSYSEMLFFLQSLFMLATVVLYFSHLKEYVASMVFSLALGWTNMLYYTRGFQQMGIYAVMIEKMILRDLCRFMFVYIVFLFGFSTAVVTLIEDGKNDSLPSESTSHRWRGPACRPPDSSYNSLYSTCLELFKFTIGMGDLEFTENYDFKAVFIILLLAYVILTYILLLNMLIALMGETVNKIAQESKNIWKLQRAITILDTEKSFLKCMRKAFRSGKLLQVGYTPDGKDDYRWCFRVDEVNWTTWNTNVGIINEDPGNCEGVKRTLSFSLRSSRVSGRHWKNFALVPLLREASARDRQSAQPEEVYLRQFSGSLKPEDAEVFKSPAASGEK

Compound: COc1cc(CNC(=O)c2cccc(-c3cccc(OC(=O)C(C)C)c3)n2)ccc1O [Example 47, 3-(6-{[(4-hydroxy-3-methoxyphenyl)methyl]carbamoyl}pyridin-2-yl)phenyl 2-methylpropanoate]
- Residual rate (%) [1]: <1%
- EC50 (Human TRPV1): 148 nM

Compound: COc1cc(CC(=O)Nc2cc(-c3cccc(OC(=O)C(C)C)c3)ccn2)ccc1O [Example 25, 3-{2-[2-(4-hydroxy-3-methoxyphenyl)acetamido]pyridin-4-yl}phenyl 2-methylpropanoate]
- Residual rate (%) [1]: <1%
- EC50 (Human TRPV1): 38 nM

Compound: COc1cc(CC(=O)Nc2cccc([C@H]3CC[C@@H](OC(=O)C(C)C)CC3)c2)ccc1O [Example 17, cis-4-{3-[2-(4-hydroxy-3-methoxyphenyl)acetamido]phenyl}cyclohexyl 2-methylpropanoate]
- Residual rate (%) [1]: <1%
- EC50 (Human TRPV1): 2.6 nM
- TRPV-1-agonistic activity (in words) (Human TRPV1): stronger TRPV-1-agonistic activity

Compound: COc1cc(CC(=O)Nc2cccc([C@H]3CC[C@@H](OC(=O)Cc4cc(F)cc(F)c4)CC3)c2)ccc1O [Example 7, cis-4-{3-[2-(4-hydroxy-3-methoxyphenyl)acetamido]phenyl}cyclohexyl (3,5-difluorophenyl)acetate]
- Residual rate (%) [1]: 100%
- EC50 (Human TRPV1): 5.6 nM

Compound: CCC(=O)Oc1cccc(-c2cccc(NC(=O)Cc3ccc(O)c(OC)c3)c2)c1 [Example 16, 3′-[2-(4-hydroxy-3-methoxyphenyl)acetamido][1,1′-biphenyl]-3-yl propanoate]
- Residual rate (%) [1]: <1%
- EC50 (Human TRPV1): 6.3 nM

Compound: COc1cc(CNC(=O)c2cccc(-c3cccc(OC(=O)CC4CCCCC4)c3)c2)ccc1O [Example 45, 3′-{[(4-hydroxy-3-methoxyphenyl)methyl]carbamoyl}[1,1′-biphenyl]-3-yl cyclohexylacetate]
- Residual rate (%) [1]: <1%
- EC50 (Human TRPV1): 31.3 nM

Compound: COc1cc(CC(=O)Nc2cccc(-c3cccc(OC(=O)C(C)C)c3)c2OC)ccc1O [Example 21, 3′-[2-(4-hydroxy-3-methoxyphenyl)acetamido]-2′-methoxy[1,1′-biphenyl]-3-yl 2-methylpropanoate]
- Residual rate (%) [1]: <1%
- EC50 (Human TRPV1): 6750 nM

Compound: COc1cc(CC(=O)Nc2cccc([C@H]3CC[C@@H](OC(=O)COc4ccccc4)CC3)c2)ccc1O [Example 6, cis-4-{3-[2-(4-hydroxy-3-methoxyphenyl)acetamido]phenyl}cyclohexyl phenoxyacetate]
- Residual rate (%) [1]: 1%
- EC50 (Human TRPV1): 5.3 nM

Compound: COc1cc(CNC(=O)c2ccnc(-c3cccc(OC(=O)C(C)C)c3)c2)ccc1O [Example 46, 3-(4-{[(4-hydroxy-3-methoxyphenyl)methyl]carbamoyl}pyridin-2-yl)phenyl 2-methylpropanoate]
- Residual rate (%) [1]: <1%
- EC50 (Human TRPV1): 4.3 nM
- TRPV-1-agonistic activity (in words) (Human TRPV1): stronger TRPV-1-agonistic activity

Compound: COc1cc(CC(=O)Nc2cccc([C@H]3CC[C@@H](OC(=O)Cc4cccc(C)c4)CC3)c2)ccc1O [Example 9, cis-4-{3-[2-(4-hydroxy-3-methoxyphenyl)acetamido]phenyl}cyclohexyl (3-methylphenyl)acetate]
- Residual rate (%) [1]: 88%
- EC50 (Human TRPV1): 2 nM

Compound: COc1cc(CC(=O)Nc2ccc(F)c(-c3cccc(OC(=O)C(C)C)c3)c2)ccc1O [Example 19, 2′-fluoro-5′-[2-(4-hydroxy-3-methoxyphenyl)acetamido][1,1′-biphenyl]-3-yl 2-methylpropanoate]
- Residual rate (%) [1]: <1%
- EC50 (Human TRPV1): 2.7 nM
- TRPV-1-agonistic activity (in words) (Human TRPV1): stronger TRPV-1-agonistic activity

Compound: COc1cc(CC(=O)Nc2cccc(-c3cccc(OC(=O)C(C)C)c3)c2)ccc1O [Example 24, 3′-[2-(4-hydroxy-3-methoxyphenyl)acetamido][1,1′-biphenyl]-3-yl 2-methylpropanoate]
- Residual rate (%) [1]: <1%
- EC50 (Human TRPV1): 3.9 nM
- TRPV-1-agonistic activity (in words) (Human TRPV1): stronger TRPV-1-agonistic activity

Compound: COc1cc(CC(=O)Nc2cccc(-c3cccc(OC(=O)CC4CCCCC4)c3)c2)ccc1O [Example 30, 3′-[2-(4-hydroxy-3-methoxyphenyl)acetamido][1,1′-biphenyl]-3-yl cyclohexylacetate]
- Residual rate (%) [1]: <1%
- EC50 (Human TRPV1): 7.2 nM

Compound: COc1cc(CC(=O)Nc2cccc(-c3ccc(OC(=O)C(C)C)cc3)c2)ccc1O [Example 4, 3′-[2-(4-hydroxy-3-methoxyphenyl)acetamido][1,1′-biphenyl]-4-yl 2-methylpropanoate]
- Residual rate (%) [1]: <1%
- EC50 (Human TRPV1): 33.6 nM

Compound: COc1cc(CC(=O)Nc2ccnc(-c3cccc(OC(=O)C4CCCCC4)c3)c2)ccc1O [Example 33, 3-{4-[2-(4-hydroxy-3-methoxyphenyl)acetamido]pyridin-2-yl}phenyl cyclohexanecarboxylate hydrochloride]
- Residual rate (%) [1]: <1%
- EC50 (Human TRPV1): 12.5 nM

Compound: COc1cc(CC(=O)Nc2cccc([C@H]3CC[C@@H](OC(=O)Cc4ccccc4Cl)CC3)c2)ccc1O [Example 10, cis-4-{3-[2-(4-hydroxy-3-methoxyphenyl)acetamido]phenyl}cyclohexyl (2-chlorophenyl)acetate]
- Residual rate (%) [1]: 67%
- EC50 (Human TRPV1): 4.8 nM

Compound: COc1cc(CC(=O)Nc2cccc([C@H]3CC[C@@H](OC(=O)CC4CCOCC4)CC3)c2)ccc1O [Example 11, cis-4-{3-[2-(4-hydroxy-3-methoxyphenyl)acetamido]phenyl}cyclohexyl (oxa-4-yl)acetate]
- Residual rate (%) [1]: 91%
- EC50 (Human TRPV1): 21.3 nM

Compound: COc1cc(CC(=O)Nc2cccc(-c3cccc(OC(=O)CC4CCCCC4)c3)n2)ccc1O [Example 32, 3-{6-[2-(4-hydroxy-3-methoxyphenyl)acetamido]pyridin-2-yl}phenyl cyclohexylacetate]
- Residual rate (%) [1]: 2%
- EC50 (Human TRPV1): 11.6 nM

Compound: COc1cc(CC(=O)Nc2cccc(-c3cccc(OC(=O)C4CCCCC4)c3)n2)ccc1O [Example 34, 3-{6-[2-(4-hydroxy-3-methoxyphenyl)acetamido]pyridin-2-yl}phenyl cyclohexanecarboxylate]
- Residual rate (%) [1]: <1%
- EC50 (Human TRPV1): 12.8 nM

Compound: COc1cc(CC(=O)Nc2cccc([C@H]3CC[C@@H](OC(=O)Cc4ccc(F)cc4)CC3)c2)ccc1O [Example 8, cis-4-{3-[2-(4-hydroxy-3-methoxyphenyl)acetamido]phenyl}cyclohexyl (4-fluorophenyl)acetate]
- Residual rate (%) [1]: 89%
- EC50 (Human TRPV1): 6.1 nM

Compound: COc1cc(CC(=O)Nc2cccc([C@H]3CC[C@@H](OC(=O)Cc4ccccc4F)CC3)c2)ccc1O [Example 15, cis-4-{3-[2-(4-hydroxy-3-methoxyphenyl)acetamido]phenyl}cyclohexyl (2-fluorophenyl)acetate]
- Residual rate (%) [1]: 69%
- EC50 (Human TRPV1): 4.6 nM
- TRPV-1-agonistic activity (in words) (Human TRPV1): stronger TRPV-1-agonistic activity

Compound: COc1cc(CC(=O)Nc2cccc(-c3cccc(OC(=O)Cc4ccccc4F)c3)c2)ccc1O [Example 28, 3′-[2-(4-hydroxy-3-methoxyphenyl)acetamido][1,1′-biphenyl]-3-yl (2-fluorophenyl)acetate]
- Residual rate (%) [1]: <1%
- EC50 (Human TRPV1): 8.8 nM
